Molecular target: T1, aggregated Aβ(1-42) peptides (Homo sapiens, UniProt P05067)
T1 construct: preaggregated Aβ(1-42) peptides
Test: Fluorescence spectra before and after mixing with preaggregated Aβ(1-42) (Cmpds 8a-8d, 11, 14, 19)
Type: binding
Settings: for Emission max before binding / Excitation max before binding: 4 μM compound in PBS, without Aβ; for Emission max before binding / Excitation max before binding / Emission max after binding / Excitation max after binding: 25° C.; for Fold increase (fluorescence intensity after binding) / Emission max after binding / Excitation max after binding: 4 μM compound, 5 μM aggregated Aβ(1-42); for Emission max after binding / Excitation max after binding: PBS
Description: An initial study to determine whether a compound can associate with aggregated Aβ is to compare its fluorescence spectra before and after mixing with the Aβ aggregates. See E. E. Nesterov, J. Skoch, B. T. Hyman, W. E. Klunk, B. J. Bacskai, T. M. Swager, Angew. Chem. Int. Edit. 2005, 44:5452-5456; Z. P. Zhuang, M. P. Kung, H. F. Kung, J. Med. Chem. 2006, 49:2841-2844; Q. A. Li, J. S. Lee, C. Ha, C. B. Park, G. Yang, W. B. Gan, Y. T. Chang, Angew. Chem. Int. Edit. 2004, 43:6331-6335; H. F. Kung, C. W. Lee, Z. P. Zhuang, M. P. Kung, C. Hou, K. Plossl, J. Am. Chem. Soc. 2001, 123:12740-12741. […] See H. LeVine III, Protein Sci. 1993, 2:404-410. Along these lines we measured the fluorescent properties of each compound at 4 μM concentration before and after mixing with preaggregated Aβ(1-42) peptides (5 μM, aggregated in PBS buffer for 3 days at 25° C.).
Aggregated Aβ peptide was prepared by dissolving Aβ(1-42) in PBS pH 7.4 to a final concentration of 100 μM. This solution was magnetically stirred at 1200 rpm for 3 days at room temperature. The 100 μM Aβ(1-42) stock solution in PBS was aliquoted and frozen at […] for up to 4 weeks without noticeable change in its property. 150 μL of pre-aggregated Aβ(1-42) was added to 2.85 mL of compound to attain a final concentration of 5 μM Aβ(1-42) and 4 μM of compound. The solution was transferred to 3 mL cuvette and the fluorescence measured at 25° C. […] The fluorescence excitation spectra of Cmpds 8a, 8b, 8c, 14 and 19 are depicted in FIG. 4, respectively.

T1 sequence (P05067 672-713 limits assumed): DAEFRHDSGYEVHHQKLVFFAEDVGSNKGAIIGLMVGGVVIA

SMILES	Emission max before binding [nm]	Excitation max before binding [nm]	Fold increase (fluorescence intensity after binding) [fold]	Emission max after binding [nm]	Excitation max after binding [nm]	Red shift of emission upon binding (binding to preaggregated Aβ) [nm]
CN(C)c1ccc(/C=C(\C#N)C(=O)OCC(O)CO)cc1 (stereo not shown) [Cmpd 14, (E)-2,3-dihydroxypropyl 2-cyano-3-(4-(dimethylamino)phenyl) acrylate]	476	437	2.2	467	434	–
COCCOCCOCCOC(=O)/C(C#N)=C/c1ccc2cc(N3CCCCC3)ccc2c1 [Cmpd 11, (E)-2-(2-(2-methoxyethoxyl)ethoxy)ethyl-2-cyano-3-(6-(piperidin-1-yl)naphthalen-2-yl)acrylate]	462	445	9.3	538	440	76

The next lines start with the values.

Emission max before binding [nm]	Excitation max before binding [nm]	Fold increase (fluorescence intensity after binding) [fold]	Emission max after binding [nm]	Excitation max after binding [nm]	Red shift of emission upon binding (binding to preaggregated Aβ) [nm]	SMILES
478	442	1.3	469	444	–	COCCOCCOCCOC(=O)/C(C#N)=C/c1ccc(N(C)C)cc1OC [Cmpd 8b, (E)-2-(2-(2-methoxyethoxyl)ethoxy)ethyl 2-cyano-3-(4-(dimethylamino)-2-methoxyphenyl)acrylate]
476	439	1.8	470	435	–	COCCOCCOCCOC(=O)/C(C#N)=C/c1ccc(N(C)C)cc1 [Cmpd 8a, (E)-2-(2-(2-methoxyethoxyl)ethoxy)ethyl 2-cyano-3-(4-(dimethylamino)phenyl)acrylate]
478	445	4.2	470	442	–	CCN(CC)c1ccc(C=C(C#N)C(=O)OCCOCCOCCOC)cc1 (stereo in doubt) [Cmpd 8c, (Z)-2-(2-(2-methoxyethoxyl)ethoxy)ethyl 2-cyano-3-(4-(diethylamino)phenyl)acrylate]
466	432	9.4	468	440	–	CCCCN(CCCC)c1ccc(C=C(C#N)C(=O)OCCOCCOCCOC)cc1 (stereo in doubt) [Cmpd 8d, (Z)-2-(2-(2-methoxyethoxyl)ethoxy)ethyl-2-cyano-3-(4-(dibutylamino)phenyl)acrylate]

From patent US9551722B2, “Amyloid binding agents” (The Regents of the University of California, priority 2009, dated 2017)
